{"source": "ChEMBL document CHEMBL2040706", "about": "“Inhibition of hepatitis C virus NS3 helicase by manoalide” (J Nat Prod, 2012)", "key": {"[1]": {"biological_target": "T1, ATP-dependent DNA/RNA helicase DHX36 (Homo sapiens) (UniProt Q9H2U1)", "T1 sequence (whole entry)": "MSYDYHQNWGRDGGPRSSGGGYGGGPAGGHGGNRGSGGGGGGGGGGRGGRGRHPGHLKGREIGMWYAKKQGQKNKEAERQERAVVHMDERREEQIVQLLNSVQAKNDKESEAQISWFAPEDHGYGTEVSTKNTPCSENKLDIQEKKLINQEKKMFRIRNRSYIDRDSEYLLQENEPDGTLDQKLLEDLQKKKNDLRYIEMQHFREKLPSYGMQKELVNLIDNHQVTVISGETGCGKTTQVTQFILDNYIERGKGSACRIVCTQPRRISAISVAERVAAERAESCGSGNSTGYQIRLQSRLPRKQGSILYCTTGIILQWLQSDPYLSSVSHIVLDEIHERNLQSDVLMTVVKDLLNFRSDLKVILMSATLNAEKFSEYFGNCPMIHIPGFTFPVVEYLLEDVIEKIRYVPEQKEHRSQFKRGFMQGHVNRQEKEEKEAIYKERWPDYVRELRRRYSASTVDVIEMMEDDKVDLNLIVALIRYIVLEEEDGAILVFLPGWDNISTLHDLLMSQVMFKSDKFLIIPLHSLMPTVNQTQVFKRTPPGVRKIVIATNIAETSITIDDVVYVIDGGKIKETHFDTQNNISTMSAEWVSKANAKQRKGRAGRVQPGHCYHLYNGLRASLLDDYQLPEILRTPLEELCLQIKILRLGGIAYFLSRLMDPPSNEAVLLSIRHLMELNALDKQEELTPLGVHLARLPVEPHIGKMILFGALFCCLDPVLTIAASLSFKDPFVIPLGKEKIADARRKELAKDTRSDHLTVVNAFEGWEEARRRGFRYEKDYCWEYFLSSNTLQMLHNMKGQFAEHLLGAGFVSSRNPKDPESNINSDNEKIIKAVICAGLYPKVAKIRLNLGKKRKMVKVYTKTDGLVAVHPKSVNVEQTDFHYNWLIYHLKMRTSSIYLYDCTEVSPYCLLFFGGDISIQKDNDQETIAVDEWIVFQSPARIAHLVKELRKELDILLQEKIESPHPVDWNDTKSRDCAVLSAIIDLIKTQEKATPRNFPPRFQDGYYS", "assay": "Inhibition of human DHX36/RHAU ATPase activity using [32Pgamma]ATP as substrate for 30 mins in the presence of poly(U)RNA"}, "Hepacivirus hominis [2]": {"system": "Hepacivirus hominis", "assay": "Binding affinity to HCV NS3 helicase assessed as increase in fluorescence after 15 mins by isothermal denaturation assay"}, "Hepacivirus hominis [3]": {"system": "Hepacivirus hominis", "assay": "Inhibition of HCV NS3 ATPase activity using [32Pgamma]ATP as substrate at 0.1 mM after 60 mins by thin layer chromatography analysis in the absence of poly(U)RNA"}, "[4]": {"assay": "Inhibition of HCV NS3 RNA helicase activity using [32Pgamma]-labelled partial duplex RNA as substrate incubated for 15 mins prior to ATP addition measured after 30 mins by PAGE analysis", "parameters": "species or system Hepacivirus hominis"}, "Hepacivirus hominis [5]": {"system": "Hepacivirus hominis", "assay": "Noncompetitive inhibition of HCV NS3 ATPase activity using 1 to 8 mM [32gamma]ATP at 0.1 mM by Lineweaver-Burk plot analysis"}, "Hepacivirus hominis [6]": {"system": "Hepacivirus hominis", "assay": "(§1) Inhibition of HCV NS3 ATPase activity using [32gamma]ATP as substrate after 30 mins by thin layer chromatography analysis in the presence of poly(U)RNA"}, "[7]": {"assay": "as §1", "parameters": "species or system Hepacivirus hominis"}, "Hepacivirus hominis [8]": {"system": "Hepacivirus hominis", "assay": "Inhibition of HCV NS3 binding to human 5'-[32Pgamma]-labelled lethal-7 microRNA precursor ssRNA at 0.1 mM after 15 mins by PAGE analysis"}, "Hepacivirus hominis [9]": {"system": "Hepacivirus hominis", "assay": "Inhibition of HCV NS3 RNA helicase activity using […] as substrate measured every 5 secs for 5 mins and every 30 secs up to 30 mins by photoinduced electron transfer-based fluorescence assay"}}, "note": "Active and inactive are the calls of the source. The rule behind the calls is not given here.", "data": [{"smiles": "CC1=C(CC/C(C)=C/CCC2=CC[C@H](C3=CC(=O)O[C@H]3O)O[C@H]2O)C(C)(C)CCC1", "note": "[MANOALIDE]", "values": [{"measurement": "inhibition", "setting": "[1]", "result": "Active"}, {"measurement": "Activity", "setting": "Hepacivirus hominis [2]", "result": "Dose-dependent effect"}, {"measurement": "inhibition", "setting": "Hepacivirus hominis [3]", "result": "Active"}, {"measurement": "IC50", "setting": "[4]", "result": 15, "unit": "µM"}, {"measurement": "inhibition", "setting": "Hepacivirus hominis [5]", "result": "Active"}, {"measurement": "inhibition", "setting": "Hepacivirus hominis [6]", "result": "Dose-dependent effect"}, {"measurement": "IC50", "setting": "[7]", "result": 70, "unit": "µM"}, {"measurement": "inhibition", "setting": "Hepacivirus hominis [8]", "result": "Active"}, {"measurement": "inhibition", "setting": "Hepacivirus hominis [9]", "result": "Active"}]}]}
